Measurements reported in patent publication US10561661B2, “Purine derivative compounds for medical use” (MANROS THERAPEUTICS, priority 2014, dated 2020).
“Also recorded” adds a separate entry of the source.

Experiments:
[1] = tested on: ΔF508 CFTR alveolar macrophages; experiment: Intracellular Pseudomonas aeruginosa growth (bacterial killing) in ΔF508 CFTR alveolar macrophages, live cell microscopy; format: cell-based, mouse; details: ΔF508 CFTR expressing alveolar macrophages, 20 μM, 6 h observation
Method: (§1) FIG. 2. Inhibition of Pseudomonas aeruginosa growth in cftr^−/− and ΔF508 alveolar macrophages by M3 metabolite and derivatives. A comparison of intracellular bacterial growth in single murine alveolar macrophages was carried out using live cell microscopy. Cells were fed DS-Red expressing P. aeruginosa for 30 min (MOI<10). Cells were exposed to M3 metabolite for 20 min prior to exposure to bacteria. Adherent and non-ingested bacteria were then removed by washing and incubation with antibiotics and live alveolar macrophages were observed microscopically for approximately 6 hours.
(§2) The data are presented as means of fluorescence intensities±SEM. Control conditions summarized data obtained from: WT—2 mice, 38 cells; ΔF508—6 mice, 120 cells; cftr^−/− 4 mice, 87 cells. […] In the presence of M3 metabolite we analysed data from: ΔF508—3 mice, 57 cells; cftr^−/−1 mouse, 67 cells. […]

Pseudomonas aeruginosa = experiment: Growth of P. aeruginosa culture (optical density); format: cell-based; details: 37° C.
Method: FIG. 3. Absence of growth inhibition of P. aeruginosa culture by M3 metabolite and derivatives. 1/100 dilution of an overnight culture of P. aeruginosa was introduced in fresh culture medium and cultures were incubated at 37° C. with 20 μM of M3 metabolite or derivatives or 1 μM bafilomycin (negative control). Optical density (600 nm) was measured 2 h and 3.5 h after starting the cultivation, and every 30 min for 2.5 h.
Pseudomonas aeruginosa DsRed from single colony was grown in gentamicin containing TSB overnight at 37° C. with agitation at 300 RPM. Next day it was started the new culture at 1/100 dilution and certain compound of blocker were added to the tubes. We measured optical density (660 nm) of bacterial culture at every 30 minutes.

DYRK3 = DYRK3 (Homo sapiens, UniProt O43781); experiment: IC50 towards inhibition of various kinases: DYRK3; format: biochemical
Chain of DYRK3 (O43781 whole entry, species assumed, the tested form may be a part): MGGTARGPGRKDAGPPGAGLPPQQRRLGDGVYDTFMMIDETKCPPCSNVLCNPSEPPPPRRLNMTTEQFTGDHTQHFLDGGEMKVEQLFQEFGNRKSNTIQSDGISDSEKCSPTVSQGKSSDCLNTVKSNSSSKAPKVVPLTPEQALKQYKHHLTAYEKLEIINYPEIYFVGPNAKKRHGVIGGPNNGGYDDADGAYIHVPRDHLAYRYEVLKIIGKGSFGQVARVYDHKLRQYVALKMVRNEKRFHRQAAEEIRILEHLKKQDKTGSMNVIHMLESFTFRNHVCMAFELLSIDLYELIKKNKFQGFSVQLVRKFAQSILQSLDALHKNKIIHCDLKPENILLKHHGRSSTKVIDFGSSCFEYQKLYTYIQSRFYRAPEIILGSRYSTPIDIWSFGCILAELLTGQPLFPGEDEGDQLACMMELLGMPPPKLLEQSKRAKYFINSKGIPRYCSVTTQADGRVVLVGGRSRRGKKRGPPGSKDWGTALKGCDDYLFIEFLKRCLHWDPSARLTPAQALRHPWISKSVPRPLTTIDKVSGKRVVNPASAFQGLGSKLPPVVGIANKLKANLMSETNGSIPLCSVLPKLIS

[2] = tested on: mouse alveolar macrophages; experiment: Lysosomes fusion: Rhodamine-110 processing and pHrodo-Red E. coli Bioparticles in murine alveolar macrophages; format: cell-based
Method: We added Rhodamine-110 to the cells prior the pHrodo-Red conjugated E. coli Bioparticles® providing simultaneous uptake of both probes into phagosomes. Lysosomes fusion into nascent phagosomes brings proteases including cathepsin and triggers Rhodamine conversion.
Isolated mouse alveolar macrophages (from cftr^−/− or Δ508F CFTR mice) were cultured adherent on the poly-L-lysine coated glass bottom dishes for 24-48 h. Then they were treated with 10 μM Rhodamine-110 for 20 min at room temperature in the dark with following incubation with 0.1 mg/ml pHrodo-Red conjugated E. coli Bioparticles® for 1 hour at 37° C. […] Then the cells were washed twice with PBS, fixed with 4% PFA. The images were acquired immediately after fixation on Leica SP5 2-photon laser confocal microscope with a 63× (NA1.4) oil objective.
Isolated mouse macrophages were plated on 96-well plate with a density of 3-6,000 cells (20-60 μm diameter) per well, incubated in complete DMEM (10% FBS, 1% penicillin-streptomycin) at 37° C. under 5% CO2 pressure for 24-48 h. The cells were loaded with 5 μM Rhodamine-110 for 20 min at room temperature in the dark, fed with E. coli Bioparticles® conjugated to pHrodo-Red for 1 h at 37° C.

DYRK2 = DYRK2 (Homo sapiens, UniProt Q92630); experiment: IC50 towards inhibition of various kinases: DYRK2; format: biochemical
Chain of DYRK2 (Q92630 whole entry, species assumed): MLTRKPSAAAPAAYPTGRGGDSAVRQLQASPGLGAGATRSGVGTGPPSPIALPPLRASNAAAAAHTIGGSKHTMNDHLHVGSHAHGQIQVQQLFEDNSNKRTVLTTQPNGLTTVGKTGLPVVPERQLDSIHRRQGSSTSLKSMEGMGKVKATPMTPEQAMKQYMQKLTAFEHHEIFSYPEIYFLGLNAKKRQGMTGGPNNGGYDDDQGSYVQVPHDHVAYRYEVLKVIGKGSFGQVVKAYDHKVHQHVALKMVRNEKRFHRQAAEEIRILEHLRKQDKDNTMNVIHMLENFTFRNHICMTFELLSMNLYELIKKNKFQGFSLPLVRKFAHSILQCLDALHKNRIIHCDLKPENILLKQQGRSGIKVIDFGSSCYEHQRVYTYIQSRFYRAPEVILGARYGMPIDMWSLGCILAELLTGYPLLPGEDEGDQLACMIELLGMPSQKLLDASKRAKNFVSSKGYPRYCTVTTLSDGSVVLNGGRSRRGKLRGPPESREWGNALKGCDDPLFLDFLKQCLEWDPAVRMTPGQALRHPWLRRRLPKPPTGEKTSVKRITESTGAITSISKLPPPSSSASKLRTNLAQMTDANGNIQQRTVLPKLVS

[3] = tested on: cftr−/− alveolar macrophages; experiment: Intracellular Pseudomonas aeruginosa growth (bacterial killing) in cftr−/− alveolar macrophages, live cell microscopy; format: cell-based, mouse; details: 20 μM, 6 h observation
Method: as §1, §2

[4] = tested on: human alveolar macrophages; experiment: Phagosomal acidification, pHrodo Red BioParticles, plate reader; format: cell-based; details: 10 μM, read over 3 h
Method: (1C) Comparative effect of various compounds on phagosomal pH in human alveolar macrophages. Data summary from 3-10 patients for each compound tested at 10 μM. Data was obtained in triplicate for each patient and averaged for all patients with error bars indicating the SEM. Data were normalized to fluorescence changes observed in untreated control cells for each patient before averaging.
Broncho-alveolar lavage from humans was performed on consenting adults following a protocol approved by The University of Chicago Institutional Review Board. The patients included men and women, smokers and non-smokers, undergoing bronchoscopy for cancer biopsies prior to clinical treatment. […]
In brief, broncho-alveolar lavage fluid was strained through a 70 μm sterile cell strainer into a 50 ml conical tube centrifuge tube with a maximum broncho-alveolar lavage volume of 40 ml and a minimum volume of 10 ml followed by centrifugation at 1000×g for 5 min at 4° C. […] Cells were counted on Countess® (Invitrogen) with a distribution cut-off of 20-60 μm and cell viability determined by trypan blue exclusion. […]
After 24 h incubation cells were exposed to pHrodo Red BioParticles® (Life Technologies). Acidification was measured on 96-well plate format with 560 and 580 nm excitation and emission wavelengths at 37° C. in a Synergy MX, BioTek® plate reader. […]

CK1δ/ε = experiment: IC50 towards inhibition of various kinases: CK1δ/ε; format: biochemical
CLK3 = CLK3 (Homo sapiens, UniProt P49761); experiment: IC50 towards inhibition of various kinases: CLK3; format: biochemical
Chain of CLK3 (P49761 whole entry, species assumed): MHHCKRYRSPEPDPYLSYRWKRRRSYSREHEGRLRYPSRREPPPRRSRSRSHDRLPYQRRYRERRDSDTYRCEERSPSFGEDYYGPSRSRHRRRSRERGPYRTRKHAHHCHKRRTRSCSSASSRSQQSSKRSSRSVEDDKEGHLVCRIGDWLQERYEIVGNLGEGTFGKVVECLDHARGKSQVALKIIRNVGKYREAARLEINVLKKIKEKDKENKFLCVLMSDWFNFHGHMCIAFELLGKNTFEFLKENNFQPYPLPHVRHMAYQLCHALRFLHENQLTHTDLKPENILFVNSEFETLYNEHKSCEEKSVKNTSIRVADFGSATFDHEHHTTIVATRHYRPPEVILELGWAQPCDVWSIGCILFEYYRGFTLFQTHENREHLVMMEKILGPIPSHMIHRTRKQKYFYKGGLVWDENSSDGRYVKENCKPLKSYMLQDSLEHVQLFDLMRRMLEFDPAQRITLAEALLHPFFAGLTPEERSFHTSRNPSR

CLK1 = CLK1 (Homo sapiens, UniProt P49759); experiment: IC50 towards inhibition of various kinases: CLK1; format: biochemical
DYRK1A = DYRK1A (Homo sapiens, UniProt Q13627); experiment: IC50 towards inhibition of various kinases: DYRK1A; format: biochemical
CLK2 = CLK2 (Homo sapiens, UniProt P49760); experiment: IC50 towards inhibition of various kinases: CLK2; format: biochemical
PfGSK-3 = PfGSK-3 (Plasmodium falciparum, UniProt O77344); experiment: biochemical; details: read-out: IC50 value towards inhibition of PfGSK-3
Chain of PfGSK-3 (O77344 1-440): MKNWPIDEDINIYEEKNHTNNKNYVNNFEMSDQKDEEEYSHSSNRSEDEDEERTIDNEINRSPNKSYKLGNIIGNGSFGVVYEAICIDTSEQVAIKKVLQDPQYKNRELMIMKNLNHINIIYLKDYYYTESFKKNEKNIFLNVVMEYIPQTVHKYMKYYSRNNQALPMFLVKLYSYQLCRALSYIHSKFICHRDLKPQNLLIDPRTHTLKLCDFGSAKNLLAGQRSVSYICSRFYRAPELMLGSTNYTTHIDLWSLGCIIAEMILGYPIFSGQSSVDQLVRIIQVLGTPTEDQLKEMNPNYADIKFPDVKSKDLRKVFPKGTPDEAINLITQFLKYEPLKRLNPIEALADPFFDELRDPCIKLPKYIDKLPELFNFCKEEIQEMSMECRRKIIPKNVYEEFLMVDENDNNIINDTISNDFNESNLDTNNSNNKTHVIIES

GSK-3α/β = experiment: IC50 towards inhibition of various kinases: GSK-3α/β; format: biochemical
Pim1 = Pim1 (Homo sapiens, UniProt P11309); experiment: IC50 towards inhibition of various kinases: Pim1; format: biochemical
Chain of Pim1 (P11309 whole entry, species assumed): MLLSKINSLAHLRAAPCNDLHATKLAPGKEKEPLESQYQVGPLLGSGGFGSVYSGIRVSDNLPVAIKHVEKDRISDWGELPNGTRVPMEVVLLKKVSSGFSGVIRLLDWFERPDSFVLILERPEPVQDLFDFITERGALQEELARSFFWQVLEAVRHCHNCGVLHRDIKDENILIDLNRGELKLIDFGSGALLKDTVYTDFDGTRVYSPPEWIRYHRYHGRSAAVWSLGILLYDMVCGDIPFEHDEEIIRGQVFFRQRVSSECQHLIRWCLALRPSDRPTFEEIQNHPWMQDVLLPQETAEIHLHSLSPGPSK

kinase = details: cited from earlier work
CLK4 = CLK4 (Homo sapiens, UniProt Q9HAZ1); experiment: IC50 towards inhibition of various kinases: CLK4; format: biochemical
Chain of CLK4 (Q9HAZ1 whole entry, species assumed): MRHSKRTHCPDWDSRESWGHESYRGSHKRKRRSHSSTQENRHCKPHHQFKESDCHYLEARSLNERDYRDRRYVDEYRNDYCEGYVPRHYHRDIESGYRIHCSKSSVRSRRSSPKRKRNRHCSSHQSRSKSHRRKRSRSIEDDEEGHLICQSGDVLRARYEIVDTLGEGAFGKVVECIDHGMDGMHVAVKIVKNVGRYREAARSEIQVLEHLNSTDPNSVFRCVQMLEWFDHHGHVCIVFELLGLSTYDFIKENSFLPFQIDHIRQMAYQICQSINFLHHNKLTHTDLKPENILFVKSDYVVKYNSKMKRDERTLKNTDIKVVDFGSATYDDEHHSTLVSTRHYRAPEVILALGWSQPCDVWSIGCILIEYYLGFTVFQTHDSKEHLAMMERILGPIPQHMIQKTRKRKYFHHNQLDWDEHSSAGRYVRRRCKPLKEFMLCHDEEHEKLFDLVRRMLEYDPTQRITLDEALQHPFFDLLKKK

CDK9/cyclin T = CDK9/cyclin T (Homo sapiens, UniProt P50750); experiment: IC50 towards inhibition of various kinases: CDK9/cyclin T; format: biochemical
Chain of CDK9/cyclin T (P50750 whole entry, species assumed): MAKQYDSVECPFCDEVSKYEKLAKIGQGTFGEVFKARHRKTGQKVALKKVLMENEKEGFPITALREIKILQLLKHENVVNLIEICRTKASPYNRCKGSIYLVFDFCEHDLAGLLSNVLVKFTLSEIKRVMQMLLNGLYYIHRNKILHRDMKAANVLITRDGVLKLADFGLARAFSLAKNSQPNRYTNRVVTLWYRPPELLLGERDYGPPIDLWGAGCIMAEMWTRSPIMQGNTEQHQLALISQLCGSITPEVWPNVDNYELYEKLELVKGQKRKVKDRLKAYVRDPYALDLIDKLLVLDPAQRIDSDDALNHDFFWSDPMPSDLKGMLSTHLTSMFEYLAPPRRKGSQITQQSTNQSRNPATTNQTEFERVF
Chain of CDK9/cyclin T (O60563 whole entry partner, species assumed): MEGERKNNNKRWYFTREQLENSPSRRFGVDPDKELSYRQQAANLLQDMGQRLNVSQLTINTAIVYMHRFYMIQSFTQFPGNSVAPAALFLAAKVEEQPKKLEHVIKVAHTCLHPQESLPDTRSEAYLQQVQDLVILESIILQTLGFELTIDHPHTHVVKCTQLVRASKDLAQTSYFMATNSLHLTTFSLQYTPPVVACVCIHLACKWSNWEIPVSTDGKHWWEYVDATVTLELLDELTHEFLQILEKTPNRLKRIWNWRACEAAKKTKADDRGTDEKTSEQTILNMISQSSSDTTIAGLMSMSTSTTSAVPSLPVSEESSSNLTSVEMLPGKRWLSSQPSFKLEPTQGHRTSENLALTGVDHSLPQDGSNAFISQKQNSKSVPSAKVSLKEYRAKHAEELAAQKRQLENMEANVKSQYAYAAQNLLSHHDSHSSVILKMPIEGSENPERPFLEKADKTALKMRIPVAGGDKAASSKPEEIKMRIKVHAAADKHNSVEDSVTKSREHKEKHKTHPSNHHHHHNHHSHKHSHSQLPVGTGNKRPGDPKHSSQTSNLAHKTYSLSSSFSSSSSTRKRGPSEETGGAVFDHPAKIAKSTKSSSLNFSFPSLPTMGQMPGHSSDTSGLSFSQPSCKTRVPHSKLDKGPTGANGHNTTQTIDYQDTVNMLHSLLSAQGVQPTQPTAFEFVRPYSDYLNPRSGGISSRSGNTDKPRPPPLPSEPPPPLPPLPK

CDK1/cyclin B = experiment: IC50 towards inhibition of various kinases: CDK1/cyclin B; format: biochemical
DYRK1B = DYRK1B (Homo sapiens, UniProt Q9Y463); experiment: IC50 towards inhibition of various kinases: DYRK1B; format: biochemical
Chain of DYRK1B (Q9Y463 whole entry, species assumed): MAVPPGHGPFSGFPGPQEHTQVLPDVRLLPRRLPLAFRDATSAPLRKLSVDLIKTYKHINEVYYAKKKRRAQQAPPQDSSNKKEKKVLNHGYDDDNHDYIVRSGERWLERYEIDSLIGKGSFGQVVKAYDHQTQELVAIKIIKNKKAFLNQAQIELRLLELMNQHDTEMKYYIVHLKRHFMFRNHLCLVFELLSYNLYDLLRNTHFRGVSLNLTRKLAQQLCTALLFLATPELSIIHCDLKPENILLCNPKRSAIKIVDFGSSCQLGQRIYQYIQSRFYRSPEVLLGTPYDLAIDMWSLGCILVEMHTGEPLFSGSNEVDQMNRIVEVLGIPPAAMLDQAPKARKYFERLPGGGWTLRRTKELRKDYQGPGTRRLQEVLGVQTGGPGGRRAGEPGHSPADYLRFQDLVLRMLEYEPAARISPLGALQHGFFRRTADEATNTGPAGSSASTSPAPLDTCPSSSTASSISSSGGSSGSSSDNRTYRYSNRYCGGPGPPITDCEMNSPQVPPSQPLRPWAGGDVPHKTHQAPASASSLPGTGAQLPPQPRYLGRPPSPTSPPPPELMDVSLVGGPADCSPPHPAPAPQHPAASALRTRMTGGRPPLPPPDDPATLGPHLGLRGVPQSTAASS

CK2 = CK2 (Homo sapiens, UniProt P68400); experiment: IC50 towards inhibition of various kinases: CK2; format: biochemical

Q: With `CC[C@H](CO)Nc1nc(NCc2ccccc2)c2ncn(C(C)C)c2n1` [(R)-roscovitine, 2-(R)-(1-ethyl-2-hydroxyethylamino)-6-benzylamino-9-isopropylpurine, reference compound] as the compound, how does the “rescue of bacterial killing (intracellular P. aeruginosa growth)” value [1] read?
A: Its value is “significantly rescues bacterial killing”.

Q: And the “prevention of bacterial growth in culture (optical density)” value (“prevention of bacterial growth” for short) (Pseudomonas aeruginosa; 20 μM)?
A: Its value is “unable to prevent bacterial growth”.

Q: And the IC50 (DYRK3)?
A: Its IC50 is 59 µM.

Q: What about the “fluorescence from pHrodo-Red conjugated E. coli Bioparticles phagocytosis” value ([2]; FIG. 4A, alveolar macrophages, compared to control) of the same compound?
A: Its value is “decreased”.

Q: What about the “fluorescence resulting from rhodamine-110 processing by lysosomal proteases” value ([2]; FIG. 4A, confocal microscopy, compared to control without compound) of the same compound?
A: Its value is “increased”.

Q: And the IC50 (DYRK2)?
A: The IC50 was 2.3 µM.

Q: And the “rescue of bacterial killing (intracellular P. aeruginosa growth)” value [3]?
A: Its value is “significantly rescues bacterial killing”.

Q: And the “phagosomal acidification over phagosomal pH observed in untreated cells” value [4]?
A: The value was “significantly enhance acidification”.

Q: With `CC(C)n1cnc2c(NCc3ccccc3)nc(N[C@@H](CO)C(=O)O)nc21` [Compound 6, (2S)-2-[[6-(benzylamino)-9-isopropyl-purin-2-yl]amino]-3-hydroxy-propanoic acid] as the compound, how does the melting point read?
A: The melting point was 120 to 130 °C.

Q: For `CC[C@@H](Nc1nc(NCc2ccccc2)c2ncn(C(C)C)c2n1)C(=O)O` [Metabolite M3, (2R)-2-[[9-isopropyl-6-(phenylmethylamino)purin-2-yl]amino]butanoic acid], which “rescue of bacterial killing (intracellular P. aeruginosa growth)” value [1] is on record?
A: The value was “at least as efficient as with (R)-roscovitine”.

Q: And the IC50 (CK1δ/ε)?
A: Its IC50 is 21 µM.

Q: What about the IC50 (CLK3) of the same compound?
A: Its IC50 is 52 µM.

Q: And the “prevention of bacterial growth” value (Pseudomonas aeruginosa; 20 μM)?
A: The value was “unable to prevent bacterial growth”.

Q: And the IC50 (CLK1)?
A: The IC50 was 18 µM.

Q: And the IC50 (DYRK1A)?
A: The IC50 was 19 µM.

Q: And the IC50 (CLK2)?
A: Its IC50 is 14 µM.

Q: What about the IC50 (PfGSK-3) of the same compound?
A: The IC50 was > 100 µM.

Q: What about the IC50 (GSK-3α/β) of the same compound?
A: The IC50 was > 100 µM.

Q: What about the IC50 (Pim1) of the same compound?
A: The IC50 was > 100 µM.

Q: What about the IC50 (DYRK3) of the same compound?
A: The IC50 was > 100 µM.

Q: And the kinase inhibiting properties (kinase)?
A: The kinase inhibiting properties was “does not exhibit kinase inhibiting properties”.

Q: And the “lysosomes fusion / rhodamine-110 processing by lysosomal proteases” value ([2]; FIG. 4B, 10 μM, mouse alveolar macrophages, versus control cells, listed as M3 metabolite)?
A: Its value is “increased; also recorded: enhanced lysosomes fusion”.

Q: What about the IC50 (DYRK2) of the same compound?
A: The IC50 was 23 µM.

Q: And the IC50 (CLK4)?
A: Its IC50 is 19 µM.

Q: What about the IC50 (CDK9/cyclin T) of the same compound?
A: The IC50 was > 10 µM.

Q: And the “rescue of bacterial killing (intracellular P. aeruginosa growth)” value [3]?
A: The value was “at least as efficient as with (R)-roscovitine”.

Q: What about the IC50 (CDK1/cyclin B) of the same compound?
A: Its IC50 is 11 µM.

Q: And the IC50 (DYRK1B)?
A: Its IC50 is 22 µM.

Q: And the “phagosomal acidification over phagosomal pH observed in untreated cells” value [4]?
A: The value was “significantly enhance acidification”.

Q: What about the IC50 (CK2) of the same compound?
A: The IC50 was > 100 µM.

Q: For `CO/C1=C\C(C)=C\[C@@H](C)[C@@H](O)[C@@H](C)C/C(C)=C/C=C/[C@H](OC)[C@@H]([C@@H](C)[C@@H](O)[C@H](C)[C@@]2(O)C[C@@H](O)[C@H](C)[C@@H](C(C)C)O2)OC1=O` [bafilomycin], which “prevention of bacterial growth” value (Pseudomonas aeruginosa; 1 μM) is on record?
A: Its value is “unable to prevent bacterial growth”.
